One assay concerns 129SvEv/Tac blastocysts. The assay is described as follows: Derivation of ES cell lines from 129SvEv/Tac blastocysts in medium with MEK inhibitor. The assay is classed as cell-based, mouse. The following applies: PD98059 50 then 25 micromolar, 12 blastocysts, 39° C. Here is the method:
ES cell derivation was essentially performed as described by Hogan et al. (Manipulating the mouse embryo, CSHL Press 1994, pp253-89), except that cell culture was performed at 39° C. instead of 37° C. C57BL/6 (Janvier, France), 129SvEv/Tac (Taconic M&B, Denmark) or C57BL/6-APCMin (Jackson Laboratories, USA) male and female mice were mated to obtain blastocysts from fertilized females. The C57BL/6-APCMin mouse strain harbours a spontaneous mutation in the APC tumor suppressor gene (Su L K et al (1992) Science 256:668-670) and provides a genetic model for human hereditary colon cancer. Plug positive females were set aside, and 3 days later blastocysts were isolated by flushing their uteri. The blastocysts were further cultured overnight in CZB medium (Chatot et al. (1990) Biol. Reprod. 42:432-440) and then transferred into 12-well tissue culture plates (1 blastocyst per well), precoated with a monolayer of Mitomycin-C inactivated primary mouse embryonic fibroblasts, in standard ES cell culture medium (“standard conditions”) (Torres and Kuehn, Laboratory protocols for conditional gene targeting, Oxford University Press 1997), or in standard medium supplemented with the MEK inhibitor PD 98059 (NEB Biolabs) (50 micromolar concentration, diluted from a 50 millimolar stock in DMSO stored at −20° C.) or with the MEK inhibitor UO126 (10 micromolar concentration; NEB Biolabs). These cultures were incubated in a tissue culture incubator (Heraeus) for 6 days at 39° C. in a 10% CO2 atmosphere. […]
(§1) The sex of the cell lines was determined through Southern blot hybridisation of genomic DNA using a detection probe (pY353) specific to a Y-chromosome specific repeat (Bishop C E and Hatat D. (1987) Nucleic Acids Res 15, 2959-2969).
(§2) For the karyotype analysis of ES cell clones, 4×10^6 cells were cultured for 1 hour in the presence of 0.2 μg/ml Demicolchicin (Sigma), trypsinised, resuspended in a hypotonic (0.56%) KCl solution and incubated for 8 minutes at room temperature. […] The chromosome numbers of 20 suitable metaphase spreads were counted at 1000× magnification under oil immersion.

The test system of assay [1] is 129 ES cell lines (129S6/SvEvTac). The assay can be described thus: ES mouse production by injection of 129 inbred ES cells into tetraploid blastocysts. Particulars: ES line ESAR-S6-PD.4 (129S6/SvEvTac) grown with PD98059, 335 injected tetraploid blastocysts. The assay is classed as in vivo. Here is the method:
(§3) Production of mice by tetraploid embryo complementation has been previously described (Eggan et al. (2001) PNAS 98:6209-6214). Briefly, embryo culture was carried out in microdrops on standard bacterial petri dishes (Falcon) under mineral oil (Sigma). Modified CZB media (Chatot et al, Supra) was used for embryo culture unless otherwise noted. Hepes buffered CZB was used for room temperature operations. After administration of hormones, superovulated B6D2F1 females were mated with B6D2F1 males. Fertilized zygotes were isolated from the oviduct and any remaining cumulus cells were removed with hyluronidase. After overnight culture, two-cell embryos were electrofused to produce one cell tetraploid embryos using a CF150-B cell fusion instrument from BLS (Budapest, Hungary) according to the manufacturers instructions. Embryos that had not undergone membrane fusion within 1 hour were discarded. Embryos were then cultured in vitro to the blastocyst stage. For microinjection, 5-6 blastocysts were placed in a drop of DMEM with 15% FCS under mineral oil. A flat tip, piezo actuated microinjection-pipette with an internal diameter of 12-15 μm was used to inject 15 ES cells into each blastocyst. After recovery, ten injected blastocysts were transferred to each uterine horn of 2.5 days post coitum, pseudopregnant NMRI females that had been mated with vasectomized males. For cesarian derivation, recipient mothers were sacrificed at E 19.5 and pups were quickly removed. Newborns that were alive and respirating were cross-fostered to lactating females. Three days later, the litters were controlled, and pups alive by that time were counted as surviving pups.

For assay [2], the system named is undifferentiated ES cells. Particulars: added to the culture medium; Burdon et al. (1999), WO 0015764; cited from earlier work.
The next assay concerns C57BL/6 ES cell lines. The assay can be described thus: ES mouse production by injection of C57BL/6 inbred ES cells into tetraploid blastocysts. The assay is classed as in vivo. The following applies: for Number of respirating pups / respirating pups efficiency: E 19.5; for Number of surviving pups / surviving pups efficiency: alive three days later. As for the experimental part:
as §3

A further assay deals with C57BL/6 blastocysts. The assay can be described thus: Derivation of ES cell lines from C57BL/6 blastocysts in medium with MEK inhibitor. The assay is classed as cell-based, mouse. The following applies: for Efficiency to derive ES lines / Number of established ES lines: C57BL/6, PD98059 50 then 25 micromolar, 18 blastocysts, UO126 10 then 4 micromolar, 40 blastocysts, 39° C; for higher efficiency of ES cell line derivation in the presence of the MEK inhibitor versus standard conditions: compared with standard conditions (Table 1). Here is the method: ES cell derivation was essentially performed as described by Hogan et al. (Manipulating the mouse embryo, CSHL Press 1994, pp253-89), except that cell culture was performed at 39° C. instead of 37° C. C57BL/6 (Janvier, France), 129SvEv/Tac (Taconic M&B, Denmark) or C57BL/6-APCMin (Jackson Laboratories, USA) male and female mice were mated to obtain blastocysts from fertilized females. The C57BL/6-APCMin mouse strain harbours a spontaneous mutation in the APC tumor suppressor gene (Su L K et al (1992) Science 256:668-670) and provides a genetic model for human hereditary colon cancer. Plug positive females were set aside, and 3 days later blastocysts were isolated by flushing their uteri. The blastocysts were further cultured overnight in CZB medium (Chatot et al. (1990) Biol. Reprod. 42:432-440) and then transferred into 12-well tissue culture plates (1 blastocyst per well), precoated with a monolayer of Mitomycin-C inactivated primary mouse embryonic fibroblasts, in standard ES cell culture medium (“standard conditions”) (Torres and Kuehn, Laboratory protocols for conditional gene targeting, Oxford University Press 1997), or in standard medium supplemented with the MEK inhibitor PD 98059 (NEB Biolabs) (50 micromolar concentration, diluted from a 50 millimolar stock in DMSO stored at −20° C.) or with the MEK inhibitor UO126 (10 micromolar concentration; NEB Biolabs). These cultures were incubated in a tissue culture incubator (Heraeus) for 6 days at 39° C. in a 10% CO2 atmosphere. The outgrown inner cell mass of each blastocyst was isolated with a pipette tip under low power magnification, transferred into a 50 microliter drop of Trypsin solution and incubated at 39° C. for 5-10 minutes. This cell clump was further dissociated by pipetting, the cells were transferred into tissue culture dishes and further propagated at 39° C. using standard ES cell culture conditions (Torres and Kuehn 1997, supra), with and without PD98059 (50 micromolar) or UO126 (10 micromolar). After the initial establishment of ES cell lines propagated in the presence of PD98059 (6 days after the first dissociation) the concentration of PD98059 was reduced to 25 micromolar, the concentration of UO 126 was reduced to 4 micromolar, and the cells were further propagated. The C57BL/6 line Bruce4 (Kontgen et al, (1993) Int Immunol. 5:957-964) was grown under standard conditions at 37° C.
as §1
For the karyotype analysis of ES cell clones, 4×10^6 cells were cultured for 1 hour in the presence of 0.2 μg/ml Demicolchicin (Sigma), trypsinised, resuspended in a hypotonic (0.56%) KCl solution and incubated for 8 minutes at room temperature. The swollen cells were sedimented by centrifugation, resuspended in freshly prepared fixative (3:1 mixture of ethanol/glacial acetic acid) and subsequently washed 2 times in fixative. Finally, the cells were resuspended in 0.5 ml fixative and dropped on glass slides precleaned with ethanol/acetic acid (19/1). After air drying, the metaphase spreads were stained for 5 minutes in a 2% solution of Giemsa's stain (Merck), washed in water, and air-dried. The chromosome numbers of 20 suitable metaphase spreads were counted at 1000× magnification under oil immersion.

For assay [3], the system named is C57BL/6 ES cell lines (Apcmin mutant or Rosa(lacZ) knock-in). The assay can be described thus: Production of genetically engineered and mutant inbred ES mice by tetraploid blastocyst injection. The assay is classed as in vivo, mouse. Details: respirating pups efficiency: concentration or dose not given beside the values. As for the experimental part: as §3
In order to generate inbred ES mice which harbour genetic alterations we pursued two different strategies. In the first protocol ES cell lines that were established and grown in media with UO 126 (see Example I) and which harbour the C57BL/6-APCMin mutation were injected into tetraploid blastocysts. […] In the second protocol the C57BL/6 ES cell line ESAR-B6-PD.4 was genetically modified in a predetermined manner through homologous recombination using a gene targeting vector. This vector (Rosa(lacZ) knock-in) introduces a beta-galactosidase reporter gene in conjunction with a selectable hygromycin resistance gene into the endogenous Rosa26 locus of the ES cell genome (Seibler et al., Nucleic Acids Res. 31, e12, 2003). This gene targeting vector was electroporated into ESAR-B6-PD4 cells exactly as described (Seibler et al., Nucleic Acids Res. 31, e12, 2003) and hygromycin resistant ES cell colonies were selected, isolated and further expanded. The genomic DNA of resistant colonies was isolated and tested by Southern blot analysis for the occurrence of a homologous recombination event in one of the Rosa26 alleles. Cells from one of the recombined ES cell clones (ESAR-B6-PD.4-R9 A-F2) was injected into tetraploid blastocysts.

Assay [4] concerns C57BL/6-APCMin blastocysts. Particulars: UO126 10 then 4 micromolar, 33 blastocysts, 39° C. As for the experimental part: ES cell derivation was essentially performed as described by Hogan et al. (Manipulating the mouse embryo, CSHL Press 1994, pp253-89), except that cell culture was performed at 39° C. instead of 37° C. C57BL/6 (Janvier, France), 129SvEv/Tac (Taconic M&B, Denmark) or C57BL/6-APCMin (Jackson Laboratories, USA) male and female mice were mated to obtain blastocysts from fertilized females. The C57BL/6-APCMin mouse strain harbours a spontaneous mutation in the APC tumor suppressor gene (Su L K et al (1992) Science 256:668-670) and provides a genetic model for human hereditary colon cancer. Plug positive females were set aside, and 3 days later blastocysts were isolated by flushing their uteri. […]
as §1, §2

The mark [5] stands for this setting: ES line ESAR-B6-PD.13 (C57BL/6J) grown with PD98059, 180 injected tetraploid blastocysts.
Setting [6] is: ES line ESAR-B6-PD.3 (C57BL/6J) grown with PD98059, 372 injected tetraploid blastocysts.
Where [7] appears, read: ES line ESAR-B6-PD.4 (C57BL/6J) grown with PD98059, 329 injected tetraploid blastocysts.
[8] abbreviates: Sum of three C57BL/6 ES lines grown with PD98059, 881 injected tetraploid blastocysts.
The mark [9] stands for this setting: Rosa(lacZ) knock-in ES clone ESAR-B6-PD.4 R9 B-G12 (C57BL/6 J) with PD98059, 162 injected tetraploid blastocysts.
The mark [10] stands for this setting: ES line ESAR-APC 3 UO (C57BL/6 J Apcmin) grown with UO126, 405 injected tetraploid blastocysts.
Setting [11] is: ES line ESAR-APC 9 UO (C57BL/6 J Apcmin) grown with UO126, 228 injected tetraploid blastocysts.
Where [12] appears, read: Sum of two C57BL/6 J Apcmin ES lines grown with UO126, 633 injected tetraploid blastocysts.

Where “and” joins values, the source holds several entries; their conditions need not be identical. Equal values may be shown once.

Here are results for two compounds from patent US20030204862A1, “Inbred embryonic stem-cell derived mice” (priority 2002, published 2003).

Turning to `COc1cccc(-c2cc(=O)c3ccccc3o2)c1N` [PD98059, 2′-amino-3′-methoxyflavone], the “Efficiency to derive ES lines” value with 129SvEv/Tac blastocysts stood at 75%; with 129SvEv/Tac blastocysts (listed as PD 98059), 75%; with C57BL/6 blastocysts it was 61%; with C57BL/6 blastocysts (listed as PD 98059), 61%. Besides, the “Number of established ES lines” value in the assay with 129SvEv/Tac blastocysts stood at 9; in the assay on C57BL/6 blastocysts, 11. In addition, the “Number of respirating pups” value in assay [1] (E 19.5) was found to be 29; with C57BL/6 ES cell lines (setting [5]), 4; in the assay on C57BL/6 ES cell lines (setting [6]), 8; with C57BL/6 ES cell lines (setting [7]) it was 11; in the assay on C57BL/6 ES cell lines (setting [8]) it was 23; in assay [3] (setting [9]) it was 4. Also, the respirating pups efficiency in assay [1] (E 19.5) is 8.66%; in the assay on C57BL/6 ES cell lines (setting [5]), 2.22%; in the assay with C57BL/6 ES cell lines (setting [6]) it was 2.15%; in the assay on C57BL/6 ES cell lines (setting [7]), 3.34%; in the assay on C57BL/6 ES cell lines (setting [8]) it was 2.6% and 2.61%; in assay [3] (setting [9]), 2.47%. In addition, the “Number of surviving pups” value is given as 15 in assay [1] (alive three days later); 0 with C57BL/6 ES cell lines (setting [5]); 1 in the assay on C57BL/6 ES cell lines (setting [6]); 4 with C57BL/6 ES cell lines (setting [7]); 5 with C57BL/6 ES cell lines (setting [8]). Further, the surviving pups efficiency in assay [1] (alive three days later) was 4.48%; in the assay on C57BL/6 ES cell lines (setting [5]), 0.00%; with C57BL/6 ES cell lines (setting [6]), 0.27%; in the assay with C57BL/6 ES cell lines (setting [7]), 1.22%; with C57BL/6 ES cell lines (setting [8]), 0.57%. The “effect on growth of undifferentiated ES cells” value in assay [2] was “enhances the growth of undifferentiated ES cells”. Also, the “higher efficiency of ES cell line derivation in the presence of the MEK inhibitor versus standard conditions” value with C57BL/6 blastocysts is 5 fold.
For the compound `N#CC(=C(/N)Sc1ccccc1N)/C(C#N)=C(/N)Sc1ccccc1N` [UO126, bis[amino[(2-aminophenyl)thio]methylene]butanedinitrile], the “Efficiency to derive ES lines” value is listed as 36% in assay [4], 80% with C57BL/6 blastocysts and 80% in the assay on C57BL/6 blastocysts (listed as UO 126). The “Number of established ES lines” value in assay [4] stood at 12; in the assay on C57BL/6 blastocysts, 32. The “higher efficiency of ES cell line derivation in the presence of the MEK inhibitor versus standard conditions” value in the assay on C57BL/6 blastocysts worked out at 5 fold. Moreover, the results for the “Number of respirating pups” value in assay [3] (setting [10]), in assay [3] (setting [11]) and in assay [3] (setting [12]) were 11, 1 and 12, respectively. Besides, the respirating pups efficiency is given as 2.72% in assay [3] (setting [10]); 0.44% in assay [3] (setting [11]); 1.90% in assay [3] (setting [12]); 1.9% in assay [3] (Sum of two C57BL/6 J Apcmin ES lines grown with UO126, 633 injected tetraploid blastocysts, listed as UO 126).
